A value given as a limit tells only on which side of the number the result lay.

Common to all, as to assay type: biochemical
For assay [1], the target named is Btk (Homo sapiens, UniProt Q06187). The experiment in a line: Btk kinase activity, TR-FRET assay. The following applies: read-out: Btk (IC50). The protocol: (§1) Btk kinase activity is determined using a time-resolved fluorescence resonance energy transfer (TR-FRET) methodology. Measurements are performed in a reaction volume of 50 μL using 96-well assay plates. Kinase enzyme, inhibitor, ATP (at the Km for the kinase), and 1 […] (Biotin-AVLESEEELYSSARQ-NH2) are incubated in a reaction buffer composed of 20 mM Tris, 50 mM NaCl, MgCl2 (5-25 mM depending on the kinase), MnCl2 (0-10 mM), 1 mM DTT, 0.1 mM EDTA, 0.01% bovine serum albumin, 0.005% Tween-20, and 10% DMSO at pH 7.4 for one hour. The reaction is quenched by the addition of 1.2 equivalents of EDTA (relative to divalent cation) in 25 μL of 1× Lance buffer (Perkin-Elmer). Streptavidin-APC (Perkin-Elmer) and Eu-labeled p-Tyr100 antibody (Perkin-Elmer) in 1× Lance buffer are added in a 25 μL volume to give final concentrations of 100 nM and 2.5 nM, respectively, and the mixture is allowed to incubate for one hour. The TR-FRET signal is measured on a multimode plate reader with an excitation wavelength (λEx) of 330 nm and detection wavelengths (λEm) of 615 and 665 nm. Activity is determined by the ratio of the fluorescence at 665 nm to that at 615 nm. For each compound, enzyme activity is measured at various concentrations of compound. Negative control reactions are performed in the absence of inhibitor in replicates of six, and two no-enzyme controls are used to determine baseline fluorescence levels. Inhibition constants, Ki(app), ware obtained using the program BatchKi (Kuzmic et al. (2000), Anal. Biochem. 286:45-50). IC50s are obtained according to the equation: IC50={Ki(app)/(1+[ATP]/Km^ATP)}+[E]total/2;
Btk, sequence (Q06187 whole entry): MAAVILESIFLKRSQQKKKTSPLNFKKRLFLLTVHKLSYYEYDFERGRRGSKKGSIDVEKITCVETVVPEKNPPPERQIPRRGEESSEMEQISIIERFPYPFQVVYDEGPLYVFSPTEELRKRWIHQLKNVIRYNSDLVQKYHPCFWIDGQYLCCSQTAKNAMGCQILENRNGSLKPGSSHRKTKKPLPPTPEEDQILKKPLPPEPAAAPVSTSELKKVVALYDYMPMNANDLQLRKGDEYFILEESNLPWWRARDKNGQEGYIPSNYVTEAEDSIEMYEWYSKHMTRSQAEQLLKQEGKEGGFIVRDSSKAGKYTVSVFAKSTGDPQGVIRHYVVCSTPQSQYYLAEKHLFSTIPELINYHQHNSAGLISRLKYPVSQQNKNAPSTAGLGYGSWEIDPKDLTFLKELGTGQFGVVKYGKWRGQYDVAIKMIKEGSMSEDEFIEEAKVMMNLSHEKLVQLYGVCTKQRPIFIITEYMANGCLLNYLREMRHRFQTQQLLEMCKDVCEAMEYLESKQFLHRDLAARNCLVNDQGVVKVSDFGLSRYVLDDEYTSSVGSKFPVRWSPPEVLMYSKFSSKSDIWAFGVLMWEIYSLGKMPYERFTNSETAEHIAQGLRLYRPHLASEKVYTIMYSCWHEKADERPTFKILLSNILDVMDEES
(§2) For all kinases, [ATP]=Km^ATP, [Btk]total=0.5 nM and [Lck]total=6 nM.
In general terms: TR-FRET usually uses a lanthanide donor and a delayed reading to cut background.

In assay [2] the target is Lck (Homo sapiens, UniProt P06239). The experiment in a line: Lck kinase activity, TR-FRET assay. The following applies: read-out: LCK (IC50). The protocol:
as §1, §2

The target in assay [3] is EGFR (Homo sapiens, UniProt P00533). The experiment in a line: Inhibition of a panel of kinases, in vitro HotSpot kinase assay: EGFR. The protocol:
The degree of inhibition of a panel of kinases is determined using the in vitro HotSpot kinase assay (purified enzymes, ^33P-ATP, an appropriate substrate and 1 uM ATP).

Lck, sequence (P06239 whole entry, species assumed): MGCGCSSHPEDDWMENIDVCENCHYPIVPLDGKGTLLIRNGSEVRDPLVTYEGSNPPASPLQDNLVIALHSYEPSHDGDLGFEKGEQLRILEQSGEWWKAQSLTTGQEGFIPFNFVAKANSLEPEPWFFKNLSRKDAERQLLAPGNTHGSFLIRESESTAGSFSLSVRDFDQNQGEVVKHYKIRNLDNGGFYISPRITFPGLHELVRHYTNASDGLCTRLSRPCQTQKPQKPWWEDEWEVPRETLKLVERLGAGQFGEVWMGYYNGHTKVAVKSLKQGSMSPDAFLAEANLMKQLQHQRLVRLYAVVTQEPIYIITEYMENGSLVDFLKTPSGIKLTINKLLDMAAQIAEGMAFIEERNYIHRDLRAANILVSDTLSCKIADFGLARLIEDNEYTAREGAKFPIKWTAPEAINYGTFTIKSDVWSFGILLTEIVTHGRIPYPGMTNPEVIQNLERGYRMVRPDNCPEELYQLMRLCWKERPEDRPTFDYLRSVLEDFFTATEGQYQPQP
EGFR, sequence (P00533 25-1210): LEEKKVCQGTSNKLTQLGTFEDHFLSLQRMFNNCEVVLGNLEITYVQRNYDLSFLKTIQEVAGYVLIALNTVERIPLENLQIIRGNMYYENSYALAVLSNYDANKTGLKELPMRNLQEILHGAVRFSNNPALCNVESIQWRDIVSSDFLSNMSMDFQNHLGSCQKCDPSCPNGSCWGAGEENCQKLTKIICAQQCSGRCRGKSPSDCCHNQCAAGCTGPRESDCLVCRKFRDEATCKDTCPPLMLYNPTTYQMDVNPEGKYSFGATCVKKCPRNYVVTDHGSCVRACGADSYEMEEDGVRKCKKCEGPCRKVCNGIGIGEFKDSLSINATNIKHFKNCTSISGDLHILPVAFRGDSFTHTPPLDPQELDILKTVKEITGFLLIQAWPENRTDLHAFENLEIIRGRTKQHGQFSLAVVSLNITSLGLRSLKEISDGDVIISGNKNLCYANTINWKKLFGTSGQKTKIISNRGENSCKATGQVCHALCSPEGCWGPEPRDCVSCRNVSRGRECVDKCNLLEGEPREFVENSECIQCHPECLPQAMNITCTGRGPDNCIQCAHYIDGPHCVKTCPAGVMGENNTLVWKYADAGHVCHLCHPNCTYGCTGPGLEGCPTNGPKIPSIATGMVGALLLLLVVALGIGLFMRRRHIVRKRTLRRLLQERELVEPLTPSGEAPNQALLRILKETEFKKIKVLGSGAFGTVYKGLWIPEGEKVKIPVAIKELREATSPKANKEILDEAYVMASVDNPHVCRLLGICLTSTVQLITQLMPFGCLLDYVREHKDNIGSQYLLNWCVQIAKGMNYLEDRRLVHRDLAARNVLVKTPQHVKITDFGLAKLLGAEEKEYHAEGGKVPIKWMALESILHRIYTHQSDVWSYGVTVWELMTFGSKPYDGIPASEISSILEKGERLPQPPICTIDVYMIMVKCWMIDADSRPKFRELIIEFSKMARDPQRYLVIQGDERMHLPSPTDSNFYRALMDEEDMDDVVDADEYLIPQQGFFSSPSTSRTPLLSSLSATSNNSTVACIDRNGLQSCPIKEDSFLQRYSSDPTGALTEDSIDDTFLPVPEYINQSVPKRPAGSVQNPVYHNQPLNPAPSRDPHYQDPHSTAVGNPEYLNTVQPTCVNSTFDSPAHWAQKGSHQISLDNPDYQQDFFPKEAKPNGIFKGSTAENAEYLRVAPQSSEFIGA

Regarding `CN(C)c1ccnc(NC(=O)c2ccc(Oc3ccnc4[nH]nc(N[C@@H]5CCN(C(=O)/C=C/CN(C)C6CC6)C5)c34)cc2)c1` [compound 68], the IC50 in assay [1] was below 100 nM; in assay [2], 1000 to 10000 nM; in assay [3] it was above 10000 nM.
On to `CCNC(=O)N1CCC[C@@H](Nc2n[nH]c3nccc(Oc4ccc(C(=O)Nc5cc(C#N)ccn5)cc4)c23)C1` [compound 79, (3R)-3-[(4-{4-[(4-cyanopyridin-2-yl)carbamoyl]phenoxy}-1H-pyrazolo[3,4-b]pyridin-3-yl)amino]-N-ethylpiperidine-1-carboxamide], for which the IC50 was below 100 nM in assay [1], 100 to 1000 nM in assay [2] and below 100 nM in assay [3].
On to `CN(C/C=C/C(=O)N1CC[C@@H](Nc2n[nH]c3nccc(Nc4ccc(Oc5ccccc5)cc4)c23)C1)C1CC1` [compound 23, (2E)-4-[cyclopropyl(methyl)amino]-1-[(3R)-3-({4-[(4-phenoxyphenyl)amino]-1H-pyrazolo[3,4-b]pyridin-3-yl}amino)pyrrolidin-1-yl]but-2-en-1-one], for which the figures for the IC50 in assay [1], in assay [2] and in assay [3] were below 100 nM, below 100 nM and 100 to 1000 nM, respectively.
`CN(C/C=C/C(=O)N1CC[C@@H](Nc2n[nH]c3nccc(Oc4ccc(Oc5ccccc5)cc4C#N)c23)C1)C1CC1` [compound 35, 2-[(3-{[(3R)-1-[(2E)-4-[cyclopropyl(methyl)amino]but-2-enoyl]pyrrolidin-3-yl]amino}-1H-pyrazolo[3,4-b]pyridin-4-yl)oxy]-5-phenoxybenzonitrile]: the IC50 in assay [1] was 100 to 1000 nM; in assay [2] it was 1000 to 10000 nM; in assay [3], above 10000 nM.
Consider `c1ccc(Oc2ccc(Oc3ncnc4[nH]nc(N[C@@H]5CCCNC5)c34)cc2)cc1` [compound 50], for which the IC50 in assay [1] and in assay [3] was above 10000 nM each time.
As for `N#C/C(=C\C1CC1)C(=O)N1CC[C@@H](Nc2n[nH]c3nccc(Oc4ccc(Oc5ccccc5)cc4)c23)C1` [compound 18, (2E)-3-cyclopropyl-2-[(E)-(3R)-{[4-(4-phenoxyphenoxy)-1H-pyrazolo[3,4-b]pyridin-3-yl]amino}pyrrolidine-1-carbonyl]prop-2-enenitrile], the 50% inhibitory concentration (IC50) in assay [1] is below 100 nM; in assay [2], 100 to 1000 nM; in assay [3] it was below 100 nM.
Consider `N#C/C(=C\c1ncc[nH]1)C(=O)N1CC[C@@H](Nc2n[nH]c3nccc(Oc4ccc(Oc5ccccc5)cc4)c23)C1` [compound 28, (2E)-3-(1H-imidazol-2-yl)-2-[(E)-(3R)-3-{[4-(4-phenoxyphenoxy)-1H-pyrazolo[3,4-b]pyridin-3-yl]amino}pyrrolidine-1-carbonyl]prop-2-enentrile], for which the values for the IC50 in assay [1], in assay [2] and in assay [3] were below 100 nM, 100 to 1000 nM and below 100 nM, respectively.
`CN(C/C=C/C(=O)N1CC[C@@H](Oc2n[nH]c3nccc(Oc4ccc(Oc5ccccc5)cc4)c23)C1)C1CC1` [compound 22, (2E)-4-[cyclopropyl(methyl)amino]-1-[(3R)-3-{[4-(4-phenoxyphenoxy)-1H-pyrazolo[3,4-b]pyridin-3-yl]oxy}pyrrolidin-1-yl]but-2-en-1-one]: the IC50 in assay [1], in assay [2] and in assay [3] was below 100 nM in each case.
For `CN(C/C=C/C(=O)N1CC[C@@H](Nc2n[nH]c3nccc(Oc4cccc(Oc5ccccc5)c4)c23)C1)C1CC1` [compound 11, (2E)-4-[cyclopropyl(methyl)amino]-1-[(3R)-3-{[4-(3-phenoxyphenoxy)-1H-pyrazolo[3,4-b]pyridin-3-yl]amino}pyrrolidin-1-yl]but-2-en-1-one], the IC50 in assay [1] is below 100 nM; in assay [2], 1000 to 10000 nM; in assay [3], 1000 to 10000 nM.
On to `CCC(=O)N1CC[C@@H](Nc2n[nH]c3nccc(Nc4ccc(C(=O)Nc5cc(C(F)(F)F)ccn5)cc4)c23)C1` [compound 70], for which the IC50 in assay [1] is below 100 nM; in assay [2], 100 to 1000 nM; in assay [3] it was 1000 to 10000 nM.
With `CC1(C(=O)N2CCC[C@@H](Nc3n[nH]c4nccc(Oc5ccc(C(=O)Nc6cc(C(F)(F)F)ccn6)cc5)c34)C2)COC1` [compound 84, 4-[(3-{[(3R)-1-(3-methyloxetane-3-carbonyl)piperidin-3-yl]amino}-1H-pyrazolo[3,4-b]pyridin-4-yl)oxy]-N-[4-(trifluoromethyl)pyridin-2-yl]benzamide], the IC50 in assay [1] is below 100 nM; in assay [2], 100 to 1000 nM.
For `N#Cc1ccnc(NC(=O)c2ccc(Oc3ccnc4[nH]nc(N[C@H]5CC[C@H](O)CC5)c34)cc2)c1` [compound 82, N-(4-cyanopyridin-2-yl)-4-[(3-{[(R,4R)-4-hydroxycyclohexyl]amino}-1H-pyrazolo[3,4-b]pyridin-4-yl)oxy]benzamide], the IC50 was below 100 nM in assay [1] and 100 to 1000 nM in assay [2].
On to `CC#CC(=O)N1CC[C@@H](Nc2n[nH]c3nccc(Oc4ccc(C(=O)Nc5cc(C(F)(F)F)ccn5)cc4)c23)C1` [compound 174], for which, in assay [1], the IC50 was below 100 nM.
For the molecule `c1ccc(Oc2ccc(Oc3ccnc4[nH]nc(NCC5CCNCC5)c34)cc2)cc1` [compound 262, 4-(4-phenoxyphenoxy)-N-(piperidin-4-ylmethyl)-1H-pyrazolo[3,4-b]pyridin-3-amine], the 50% inhibitory concentration (IC50) in assay [1] fell in the range of 100 to 1000 nM.
As to `Cc1cc(NC(=O)c2cccc(Oc3ccnc4[nH]nc(N[C@H]5CCNC5)c34)c2)ccc1C(C)C` [compound 260, (S)—N-(4-isopropyl-3-methylphenyl)-3-(3-(pyrrolidin-3-ylamino)-1H-pyrazolo[3,4-b]pyridin-4-yloxy)benzamide], in assay [1], the IC50 fell in the range of 100 to 1000 nM.
With `C=CC(=O)N1CCC[C@@H](CNc2n[nH]c3nccc(Oc4ccc(Oc5ccccc5)cc4)c23)C1` [compound 267, (S)-1-(3-((4-(4-phenoxyphenoxy)-1H-pyrazolo[3,4-b]pyridin-3-ylamino)methyl)piperidin-1-yl)prop-2-en-1-one], the IC50 in assay [1] was below 100 nM.
Regarding `C=CC(=O)N1CCC[C@@H](Nc2n[nH]c3nccc(Oc4ccc(C(=O)N5CCCC(C(F)(F)F)C5)cc4)c23)C1` (stereo partly shown) [compound 160], the IC50 in assay [1] is below 100 nM.
On to `CC1(C(=O)N2CCC[C@@H](Nc3n[nH]c4nccc(Oc5ccc(C(=O)Nc6cc(C#N)ccn6)cc5)c34)C2)COC1` [compound 83, N-(4-cyanopyridin-2-yl)-4-[(3-{[(3R)-1-(3-methyloxetane-3-carbonyl)piperidin-3-yl]amino}-1H-pyrazolo[3,4-b]pyridin-4-yl)oxy]benzamide], for which the IC50 in assay [1] is below 100 nM; in assay [2], 100 to 1000 nM.
Consider `Cc1cc(NC(=O)c2cccc(Nc3ccnc4[nH]nc(O[C@@H]5CCCNC5)c34)c2)ccc1C(C)C` [compound 259, (R)—N-(4-isopropyl-3-methylphenyl)-3-(3-(piperidin-3-yloxy)-1H-pyrazolo[3,4-b]pyridin-4-ylamino)benzamide], for which the IC50 in assay [1] lay within 100 to 1000 nM.
For `c1ccc(Oc2ccc(Oc3ccnc4[nH]nc(NC[C@H]5CCNC5)c34)cc2)cc1` [compound 264, (S)-4-(4-phenoxyphenoxy)-N-(pyrrolidin-3-ylmethyl)-1H-pyrazolo[3,4-b]pyridin-3-amine], the IC50 in assay [1] was 100 to 1000 nM.
With `Cc1cnc(-c2cccc(Oc3ccnc4[nH]nc(N[C@@H]5CCCN(C(=O)/C=C/CN(C)C6CC6)C5)c34)c2)s1` [compound 150], the IC50 in assay [1] was in the range of 1000 to 10000 nM.
For `Cc1cc(NC(=O)c2cccc(Nc3ccnc4[nH]nc(N[C@@H]5CCCNC5)c34)c2)ccc1C(C)C` [compound 253, (R)—N-(4-isopropyl-3-methylphenyl)-3-(3-(piperidin-3-ylamino)-1H-pyrazolo[3,4-b]pyridin-4-ylamino)benzamide], the IC50 in assay [1] fell in the range of 100 to 1000 nM.
With `CN(C/C=C/C(=O)N1CCC[C@@H](Nc2n[nH]c3nccc(Oc4ccc(NC(=O)Nc5cc(C(F)(F)F)ccn5)cc4)c23)C1)C1CC1` [compound 214, 3-{4-[(3-{[(3R)-1-[(2E)-4-[cyclopropyl(methyl)amino]but-2-enoyl]piperidin-3-yl]amino}-1H-pyrazolo[3,4-b]pyridin-4-yl)oxy]phenyl}-1-[4-(trifluoromethyl)pyridin-2-yl]urea], in assay [1], the IC50 fell in the range of 100 to 1000 nM.
For the molecule `c1ccc(Oc2ccc(Oc3ccnc4[nH]nc(NC5CCNCC5)c34)cc2)cc1` [compound 261], the IC50 in assay [1] is below 100 nM.
On the same count and under the same terms, then `O=C(NC1CCCCC1)c1cccc(Oc2ccnc3[nH]nc(N[C@@H]4CCCNC4)c23)c1` [compound 254, (R)—N-cyclohexyl-3-(3-(piperidin-3-ylamino)-1H-pyrazolo[3,4-b]pyridin-4-yloxy)benzamide], with 100 to 1000 nM; and `C=CC(=O)N1CC[C@@H](Nc2n[nH]c3nccc(Oc4ccc(C(=O)Nc5cc(C(F)(F)F)ccn5)cc4)c23)C1` [compound 171], with below 100 nM; and `Cc1c[nH]c(NC(=O)c2ccc(Oc3ccnc4[nH]nc(N[C@@H]5CCCN(C(=O)/C=C/CN(C)C6CC6)C5)c34)cc2)n1` [compound 157], with 1000 to 10000 nM.

As usually defined, the IC50 is the concentration that gives 50% inhibition.
